The text below walks through data of publication PMC11109052, “Metabolism characterization and toxicity of N-hydap, a marine candidate drug for lung cancer therapy by LC–MS method” (Natural Products and Bioprospecting, 2024).

One data set concerns UGT1A6. Description: DME activity ex vivo in MLMs and MKMs: UGT1A6 (Sero-G from Sero). Also noted: species or system mice; key to UGT1A6 Enzymatic activity: ↑: up-regulation; ↓: down-regulation; –: no change. As to the method: (§1) Mice were randomly divided into four groups, with eight animals in each group. The mice received oral pretreatment with N-hydap for 7 days at doses of 2, 5, and 10 mg/kg/day, which were considered as the low dose, medium dose, and high dose, respectively. Correspondingly, the control group received PBS. On the 8th day, the liver and kidneys were removed, and organs from eight mice per group were combined to prepare MLMs and MKMs using the detailed procedures above. Subsequently, we determined the activity of CYP and UGT enzymes by specific substrate metabolized with MLMs (0.5 mg/mL) and MKMs (0.2 mg/mL) in vitro. Specifically, the following selective substrates were used for the respective enzymes: PH (1 μM) for CYP1A2, DIC (1 μM) for CYP2C9, MP (90 μM) for CYP2C19, DM (1 μM) for CYP2D6, CZX (10 μM) for CYP2E1, Tes (1 μM) for CYP3A4, SN38 (1 μM) for UGT1A1, CACD (100 μM) for UGT1A3, Sero (20 μM) for UGT1A6, and Prop (1 μM) for UGT1A9. All substrates were dissolved in methanol or DMSO. The incubation procedure was carried out as mentioned above, and the reaction was terminated with VER (20 ng/mL) in ESI+ mode and CLP (200 ng/mL) in ESI− mode. In the ex vivo experiments, the activity of enzymes was measured by quantifying the production of various metabolites (nM/mg protein/min). The metabolites and their corresponding enzymes are as follows: APAP from PH, 4-OH-DIC from DIC, 4-OH-MP from MP, DXO from DM, 6-OH-CZX from CZX, 6-OH-Tes from Tes, SN38-G from SN38, CACD-G from CACD, Sero-G from Sero, Prop-G from Prop. The measurements were performed using multiple reaction monitoring (MRM) transitions, which are specific mass spectrometry transitions used for quantification. The optimized parameters for each metabolite, such as declustering potential and collision energy, were described in Supplementary Table 1. All experiments were conducted in triplicate, to ensure accuracy and reproducibility.

The nature of the next data set: Stability in plasma. The data set is classed as in vitro ADME. How it is done: The stability of the KPI solution was examined after storage at 4 °C for 24 h and incubation at 37 °C for 4 h, which was conducted using the QC samples at three concentrations (five samples for each concentration). Stability in plasma and tissue homogenate was assessed by testing samples stored at both 4 °C and room temperature for 24 h.

Another data set relates to HLMs (UGT reaction). Description: Metabolic stability in HLMs, UGT reaction (glucuronidation). The data set is classed as in vitro ADME, human. The conditions noted are these: for percentage of N-hydap remaining: HLMs, glucuronidation reaction. As to the method:
(§2) Various microsomes including HLMs, HKMs, HIMs, RLMs, RKMs, MLMs and MKMs were involved in CYP and UGT reactions of N-hydap. A typical CYP incubation mixture included 0.5 mg/mL microsomes protein, 3.3 mM glucose-6-phosphate, 3.3 mM MgCl2, 0.4 U/mL glucose-6-phosphate dehydrogenase, and N-hydap (1, 2.5, or 10 μM) in the 50 mM potassium phosphate buffer (KPI, pH 7.4). The incubation mixture was preincubated at 37 °C for 5 min, and the reaction was started by adding NADP to form a NADPH-regenerating system. Simultaneously, the classic UGT reaction system consisted of 50 mM KPI, 5 mM MgCl2, 0.5 mg/mL microsomes, 0.125 mg/mL alamethicin, and 5.25 mg/mL saccharolactone. The reaction was initiated after supplying UDPGA. The CYP and UGT mixtures were incubated at 37 °C in a shaking water bath (80 rpm) for 1.5 h to enhance metabolite formation. To terminate the reaction, an ice-cold solution of Tes (50 ng/mL, dissolved in methanol and used as an internal standard) was added to half of the mixture volume. The mixture was vortexed for 30 s and then centrifuged at 13,000 rpm for 15 min to eliminate any precipitated protein. The resulting supernatant was transferred to autosampler vials, and 5 μL was injected into the LC–MS system. All reactions were conducted in triplicate.
(§3) The identical concentration of HLMs was utilized for both the CYP reaction and UGT reaction. At predetermined time intervals of 0, 15, 30, and 60 min, 100 µL samples were taken from the reaction volumes. To halt the reaction, 50 µL of 50 ng/mL Tes was added. Samples were analyzed using LC–MS to compare the remaining level of N-hydap between the CYP reaction and UGT reaction. T1/2 and CLint (in vivo) (mL/min/kg) were calculated as reported previously:
(§4) T1/2=0.693/k, where k represents the slope of the line derived from plotting the natural logarithm of the percentage (Ln %) of N-hydap remaining in the reaction mixture against the incubation time (minutes).
(§5) CLintinvivo=0.693/invitroT1/2×mLincubation/mgmicrosomes×45mgmicrosomes/gliver×20gliver/kgbodyweight.

Assay in data set [1]: as above
The data set is classed as in vitro ADME, human. Particulars: human, human liver microsomes (UGT reaction), pH 7.4, HLMs, UGT reaction. As to the method:
as §2, §3, §4, §5

The test system of the next data set is Cyp2e1. The data set can be described thus: Real-time PCR mRNA level after 7 days gavage: Cyp2e1. The arrangement: key to CYP2E1 mNA expression: ↑: up-regulation; ↓: down-regulation; –: no change. Particulars: for mRNA levels of Cyp2e1: mice, 2, 5, 10 mg/kg p.o. 7 days. The format is in vivo, mice. As to the method: as §1
Total RNA from liver and kidney samples taken after 7 days of N-hydap gavage was extracted using the Animal Total RNA Isolation Kit (Foregene, Chengdu, Sichuan, China) following the manufacturer’s instructions. The concentrations of total RNA were determined by a nucleic acid concentration tester at 260/280 nm. A HiScript III RT SuperMix for qPCR (+ gDNA wiper) (Vazyme, Nanjing, Jiangsu, China) was used to measure the concentration of the synthesized cDNA. ChamQ SYBR qPCR Master Mix (Vazyme, Nanjing, Jiangsu, China) and detection were performed using a Light Cycler 480 II (ROCHE, Basel, Switzerland). Real-time PCR was used to analyze the relative mRNA levels of Cyp1a2, Cyp2b10, Cyp2c39, Cyp2d22, Cyp2e1, Cyp3a11, Ugt1a1, Ugt1a6a and Ugt1a9 (human homologs: CYP1A2, CYP2B6, CYP2C19, CYP2D6, CYP2E1, CYP3A4, UGT1A1, UGT1A6, and UGT1A9) in the liver, kidneys, and intestines. […]

One may read the half-life as how long it takes for the measured level to halve. Turning to `CC1CCC2C(C=CC(C)C2C(=O)c2c(O)c(C3(O)CCC(O)C4OC43)cn(O)c2=O)C1` (centres unmarked) [N-hydap, N-Hydroxyapiosporamide], the “UGT1A6 Enzymatic activity” value was “–” in the data set on UGT1A6 (Kidney) and “↓” in the data set on UGT1A6 (Liver). For the same compound, the “reduction of formation rate of Sero-G vs control” value in the data set on UGT1A6 (liver microsomes of mice pretreated 7 days p.o.) stood at 72%. Moreover, the “stability, Accuracy (Bias, %)” value in “Stability in plasma” (200 nM, 4℃ for 24h) stood at 113.9%; in the data set “Stability in plasma” (200 nM, room temperature for 24h) it was 101.9%; in the data set “Stability in plasma” (600 nM, 4℃ for 24h) it was 87.98%; in “Stability in plasma” (600 nM, room temperature for 24h), 105.23%; in “Stability in plasma” (2500 nM, 4℃ for 24h) it was 91.36%; in the data set “Stability in plasma” (2500 nM, room temperature for 24h) it was 108.04%. The “percentage of N-hydap remaining” value is on record as 47.84% in the data set on HLMs (UGT reaction) (15 min) and 40.44% in the data set on HLMs (UGT reaction) (30 min). Also, the “UGT catelyzed, experimental results” value with HLMs (UGT reaction) (Table 4 experimental column) is “Yes”. The “Phase II metabolism, experimental results” value in the data set on HLMs (UGT reaction) (Table 4 experimental column, microsomes) is given as “Glucuronidation”. The “eliminated by UGTs” value with HLMs (UGT reaction) (various microsomes, after 1 h) is recorded as around 70%. In addition, the half-life in data set [1] was 129 min. In addition, the CLint scaled in data set [1] (extrapolated from in vitro T1/2, read-out: CLint (in vivo)) was 48.2 mL/min/kg. The “CYP2E1 mNA expression” value is recorded as “↑” with Cyp2e1 (Kidney) and “–” in the data set with Cyp2e1 (Liver). Moreover, the “mRNA levels of Cyp2e1” value in the data set on Cyp2e1 (intestines) is listed as “slight reduction”; in the data set on Cyp2e1 (kidney), “modest increase”.
